In article PMC5833756, “A novel ruthenium complex with xanthoxylin induces S-phase arrest and causes ERK1/2-mediated apoptosis in HepG2 cells through a p53-independent pathway” (Cell Death & Disease, 2018):

Experiments:
HepG2 cell xenografts = test: Human hepatocellular carcinoma xenograft model; type: in vivo, C.B-17 SCID mice; conditions: 0.3 mg/kg doxorubicin, 10 mg/kg 5-fluorouracil, i.p. once a day for 21 days
Procedure: Animals were housed in cages with free access to food and water. All animals were kept under a 12:12 h light-dark cycle (lights on at 6:00 a.m.). The local Animal Ethics Committee approved the experimental protocol (number 06/2015).
HepG2 cells (1 × 10^7 cells per 500 µL) were implanted subcutaneously into the left front armpit of the mice. […] The treatments were initiated one day after the tumor cell injection. The animals were treated intraperitoneally (200 µL per animal) once daily for 21 consecutive days. On the 22nd day, the animals were anesthetized, and peripheral blood samples were collected from the brachial artery. Animals were euthanized by anesthetic overdose, and tumors were excised and weighed.

HepG2 cells [1] = test: DNA synthesis quantification (methyl-[3H]-thymidine incorporation); type: cell-based, human
Procedure: Cellular DNA synthesis was quantified by the incorporation of methyl-[^3H]-thymidine. Methyl-[^3H]-thymidine is a radiolabeled DNA precursor that is incorporated into newly synthesized DNA. Briefly, the complex was added along with 1 µCi of methyl-[^3H]-thymidine (PerkinElmer; Shelton, CT, USA) and incubated for 3 h. After this incubation period, cultures were harvested using a cell harvester (Brandel, Inc., Gaithersburg, MD, USA), and the amount of incorporated^3H-thymidine was determined using a liquid scintillation cocktail Hidex Maxilight (PerkinElmer Life Sciences; Groningen, GE, Netherlands) and a plate CHAMELEON V multilabel Counter (Mustionkatu 2, Turku, Finland). Mitoxantrone (Sigma-Aldrich) was used as the positive control.

HepG2 cells [2] = test: Mitochondrial transmembrane potential (rhodamine 123); type: cell-based, human; conditions: HepG2, 24 h
Procedure: Mitochondrial transmembrane potential was determined by the retention of the rhodamine 123 dye[38]. Cells were incubated with rhodamine 123 (5 μg/mL, Sigma-Aldrich Co.) at 37 °C for 15 min in the dark and washed with saline.

caspase-3 = test: Caspase-3 colorimetric activation assay; type: cell-based, human; conditions: HepG2, 48 h
Procedure: (§1) A caspase-3 colorimetric assay kit (Sigma-Aldrich), caspase-8 colorimetric assay kit (BioVision Inc.; Milpitas, CA, USA) and caspase-9 colorimetric assay kit (Invitrogen; Frederick, MD, USA) were used to investigate the activation of caspase-3, -8 and -9 in RCX-treated HepG2, respectively. […] Briefly, cells were lysed by incubation with cell lysis buffer on ice for 10 min and then centrifuged. Enzyme reactions were carried out in a 96-well flat-bottom microplate. To each reaction mixture, 5 μL of cell lysate was added. Absorbance at 405 nm was measured using the SpectraMax 190 Microplate Reader (Molecular Devices). The results are expressed as the specific activity (IU/mg protein) of each caspase.

caspase-8 = test: Caspase-8 colorimetric activation assay; type: cell-based, human; conditions: HepG2, 48 h
Procedure: as §1

caspase-9 = test: Caspase-9 colorimetric activation assay; type: cell-based, human; conditions: HepG2, 48 h
Procedure: as §1

HepG2 cells [3] = test: Intracellular reactive oxygen species levels (DCF-DA); type: cell-based, human; conditions: HepG2, 1 or 3 h
Procedure: The production levels of ROS were measured according to a previously described method[39] using DCF-DA (Sigma-Aldrich). […] Then, the cells were collected, washed with saline and resuspended in FACS tubes with saline containing 5 μM DCF-DA for 30 min. […] A protection assay using the antioxidant NAC (Sigma-Aldrich) was also performed. […] The cells were then trypsinized, and the TBE assay was performed.

ERK1/2 (pT202/pY204) = test: Phosflow analysis; type: cell-based, human; conditions: HepG2, 12 µM RCX, 15 min, 30 min, 24 h
Procedure: (§2) Phosphorylated ERK 1/2, JNK/SAPK and p38 MAPK were analyzed by flow cytometry. In brief, cells were collected and resuspended in 0.5–1 mL of 4% formaldehyde and fixed for 10 min at 37 °C. Then, the tubes were chilled on ice for 1 min. The cells were permeabilized by slowly adding ice-cold 100% methanol to prechilled cells while gently vortexing to a final concentration of 90% methanol and were incubated for 30 min on ice. After washing with incubation buffer (0.5% bovine serum albumin in PBS), PE mouse anti-ERK1/2 (pT202/pY204), PE mouse anti-JNK/SAPK (pT183/pY185), PE mouse anti-p38 MAPK (pT180/pY182) or PE mouse IgG1, κ isotype control antibodies, all from BD Biosciences, were added and incubated for 1 h at room temperature.

JNK/SAPK (pT183/pY185) = test: Phosflow analysis; type: cell-based, human; conditions: HepG2, 12 µM RCX, 15 min, 30 min, 24 h
Procedure: as §2

p38 MAPK (pT180/pY182) = test: Phosflow analysis; type: cell-based, human; conditions: HepG2, 12 µM RCX, 15 min, 30 min, 24 h
Procedure: as §2

HepG2 cells [4] = test: Annexin V/PI staining assay (flow cytometry); conditions: HepG2, 12 and 24 µM, 12-72 h
Procedure: For apoptosis detection, we used the FITC Annexin V Apoptosis Detection Kit I (BD Biosciences), and the analysis was performed according to the manufacturer’s instructions. Briefly, cells were washed twice with saline and then resuspended in 100 μL of binding buffer with 5 μL of PI and 5 μL of FITC Annexin V. The cells were gently mixed by vortexing and incubated for 15 min at room temperature in the dark. Afterwards, 400 μL of binding buffer was added to each tube, and the cell fluorescence was determined by flow cytometry, as described above. The percent of viable, early apoptotic, late apoptotic and necrotic cells were determined. […] The cells were then trypsinized, and the FITC Annexin V Apoptosis Detection assay was conducted as described above.

| SMILES | reduction of tumor weight (HepG2 cell xenografts) [%] | reduction of DNA synthesis (HepG2 cells [1]; HepG2, 12 μM) [%] | reduction of DNA synthesis (HepG2 cells [1]; HepG2, 24 μM) [%] | mitochondrial membrane potential (HepG2 cells [2]) | caspase-3 activity (caspase-3) | caspase-8 activity (caspase-8) | caspase-9 activity (caspase-9) | ROS levels (HepG2 cells [3]) | phosphorylation of ERK1/2 (ERK1/2 (pT202/pY204)) | phosphorylation of JNK/SAPK (JNK/SAPK (pT183/pY185)) | phosphorylation of p38 MAPK (p38 MAPK (pT180/pY182)) | induction of apoptosis (HepG2 cells [4]) |
| --- | --- | --- | --- | --- | --- | --- | --- | --- | --- | --- | --- | --- |
| COc1cccc2c1C(=O)c1c(O)c3c(c(O)c1C2=O)C[C@@](O)(C(=O)CO)C[C@@H]3O[C@H]1C[C@H](N)[C@H](O)[C@H](C)O1 [DOX, doxorubicin] | 27.2 |  |  |  |  |  |  |  |  |  |  |  |
| COc1cc([O-])c(C(C)=O)c(OC)c1.F[P-](F)(F)(F)(F)F.[Ru+2].c1cnc2c(c1)ccc1cccnc12.c1cnc2c(c1)ccc1cccnc12 [RCX, cis-[Ru(phen)2(xant)](PF6)] |  | 46.4 | 65.2 | induced mitochondrial depolarization | caused the activation of all caspases analyzed | caused the activation of all caspases analyzed | caused the activation of all caspases analyzed | did not induce a significant increase in ROS levels | induced the phosphorylation of ERK1/2 after 15- and 30-min incubations | the phosphorylation of JNK/SAPK after a 15-min incubation | an increase in the phosphorylation of p38 MAPK was not observed at any time point investigated | caused apoptosis in a time- and concentration-dependent manner |
